Assay results reported in paper PMC8920097, “Prediction of hERG inhibition of drug discovery compounds using biomimetic HPLC measurements” (ADMET & DMPK, 2021).
Read-outs that look alike come from different tables or passages of the source.

Key:
[1] = target: human serum albumin (HSA) (Homo sapiens, UniProt P02768); experiment: Protein binding on Chiralpak HSA HPLC column
Description: (§1) The measurement of the biomimetic properties of the available drugs was conducted in our laboratories. Generic gradient HPLC methods were used to determine the chromatographic hydrophobicity Index (CHI) using mobile phases at three different pH values. The protein binding of the compounds was measured using immobilised human serum albumin (HSA), and alpha-1-acid-glycoprotein (AGP) stationary phases. The phospholipid-binding was measured using the immobilised artificial membrane (IAM) stationary phase. The aim was to establish relationships between the cardiotoxicity potential and the biomimetic binding properties of the drugs and to evaluate their predictive performance.

[2] = system: alpha-1-acid-glycoprotein (AGP); experiment: Protein binding on Chiralpak AGP HPLC column
Description: as §1

hERG channel = settings: cited from earlier work
[3] = CHI lipophilicity by gradient reversed-phase HPLC (Gemini NX-C-18); settings: for chromatographic logD: Gemini NX-C-18 reversed-phase HPLC column, pH 7.4; for chromatographic logP: reversed-phase HPLC, Gemini NX-C-18 column (50 x 3 mm, 5 µm)
Description: The Chromatographic Hydrophobicity Index (CHI) was measured using the compounds’ calibrated gradient retention times obtained from an Agilent 1100 HPLC fitted with a Gemini NX-C-18 column (Phenomenex Ltd Macclesfield, UK) with dimensions of 50 x 3 mm and 5 μm particle size. […] The mobile phase B was 100 % acetonitrile. […] An acetonitrile linear gradient was used from 0 to 100 %. […] The retention time values for a standard set of compounds listed in Table 1 were used to convert the drug retention times to CHI values.

[4] = Phospholipid binding at pH 7.4 on IAM PC.DD2 HPLC column; type: physicochemical; parameters: key to CHI IAM: approximates acetonitrile concentration (%) in mobile phase at elution; settings: for log k IAM: pH 7.4, derived from CHI IAM by equation 1; for CHI IAM: pH 7.4
Description: The phospholipid-binding was measured using an IAM PC.DD2 column with dimensions of 100 x 4.6 mm (Regis Technologies Inc., Morton Grove, IL, USA). The gradient retention times were measured using a 50 mM ammonium acetate mobile phase with the pH adjusted to 7.4. The mobile phase flow rate was 1.5 mL/min. […] The cycle time was 6 min, plus an additional 1 min equilibration time was applied while the injector prepared for the next injection. The gradient retention times were calibrated with the acetophenone homologues for which the CHI IAM values have been established using isocratic measurements. […] The CHI Index on the IAM column (CHI IAM) approximates the acetonitrile concentration in the mobile phase when the compound elutes. […] The CHI IAM values have been converted to log k IAM values derived from the CHI IAM values using equation 1. It represents the equivalent value derived from several isocratic measurements with extrapolated log retention factors to 100 % aqueous mobile phase. The log k IAM values can be converted to log K (IAM) values and show linear relationships with the octanol/water partition coefficients.

[5] = Charge character of the drugs at pH 7.4; type: physicochemical
[6] = literature values, mean where several reported, molar

Chain of human serum albumin (HSA) (P02768 25-609): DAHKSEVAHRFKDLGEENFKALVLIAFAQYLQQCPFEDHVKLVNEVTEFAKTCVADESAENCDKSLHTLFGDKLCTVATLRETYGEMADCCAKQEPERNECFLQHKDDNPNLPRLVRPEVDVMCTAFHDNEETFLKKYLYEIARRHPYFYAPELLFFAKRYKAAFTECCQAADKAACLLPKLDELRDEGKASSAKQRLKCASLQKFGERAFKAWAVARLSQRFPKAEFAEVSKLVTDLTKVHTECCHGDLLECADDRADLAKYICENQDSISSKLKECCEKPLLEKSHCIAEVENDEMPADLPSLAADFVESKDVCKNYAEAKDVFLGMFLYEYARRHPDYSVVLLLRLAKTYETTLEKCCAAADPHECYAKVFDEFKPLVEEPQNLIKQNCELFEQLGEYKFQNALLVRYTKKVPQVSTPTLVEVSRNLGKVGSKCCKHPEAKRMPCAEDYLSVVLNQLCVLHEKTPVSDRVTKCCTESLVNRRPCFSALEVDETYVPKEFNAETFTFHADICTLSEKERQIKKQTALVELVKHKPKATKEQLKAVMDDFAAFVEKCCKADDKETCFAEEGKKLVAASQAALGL

Compound | log k AGP ([2]; pH 7.4, Chiralpak AGP) | chromatographic logD [3] | chromatographic logP [3] | log k IAM [4] | Charge [5] | CHI IAM [4] | log k HSA ([1]; human, pH 7.4) | log k AGP ([2]; pH 7.4) | log k HSA ([1]; pH 7.4, Chiralpak HSA) | hERG pIC50 (hERG channel) | hERG pIC50 (hERG channel; [6])
COc1cc2nc(N(C)CCCNC(=O)C3CCCO3)nc(N)c2cc1OC (stereo not drawn) [Alfuzosin] | 0.32 | – | – | – | – | – | – | – | 0.08 | 4.28 | –
COc1ccc(CCN2CCC(Nc3nc4ccccc4n3Cc3ccc(F)cc3)CC2)cc1 [Astemizole] | 1.12 | 2.68 | 3.52 | 2.77 | Basic | – | – | – | 1.17 | 6.69 | –
CN(C)CCC(c1ccc(Br)cc1)c1ccccn1 (stereo not drawn) [Brompheniramine] | 0.68 | 1.74 | 4.27 | 2.8 | Basic | – | – | – | 0.68 | – | 5.61
CCCCN1CCCCC1C(=O)Nc1c(C)cccc1C (stereo not drawn) [Bupivacaine] | 1.35 | 3.06 | 3.97 | 2.34 | Weak Base | 41.66 | – | – | -0.10 | – | 5.51
COc1cc(N)c(Cl)cc1C(=O)NC1CCN(CCCOc2ccc(F)cc2)CC1OC (stereo not drawn) [Cisapride] | 0.84 | 2.65 | 3.17 | 2.35 | Basic | – | – | – | 1.11 | 6.88 | –
CC[C@H]1OC(=O)[C@H](C)[C@@H](O[C@H]2C[C@@](C)(OC)[C@@H](O)[C@H](C)O2)[C@H](C)[C@@H](O[C@@H]2O[C@H](C)C[C@H](N(C)C)[C@H]2O)[C@](C)(OC)C[C@@H](C)C(=O)[C@H](C)[C@@H](O)[C@]1(C)O [Clarithromycin] | 0.20 | 1.9 | 4.55 | 2.70 | Basic | 49.68 | – | – | -0.24 | 4.32 | –
CN(CCOc1ccc(NS(C)(=O)=O)cc1)CCc1ccc(NS(C)(=O)=O)cc1 [Dofetilide] | 0.59 | 1.18 | 1.12 | – | Weak Base | – | – | – | -0.05 | 5.72 | –
COc1cc2nc(N3CCN(C(=O)C4COc5ccccc5O4)CC3)nc(N)c2cc1OC (stereo not drawn) [Doxazosin] | 0.72 | 2.09 | 2.24 | 2.16 | Weak Base | – | – | – | 1.04 | – | 6.03
O=C(NCC1CCCCN1)c1cc(OCC(F)(F)F)ccc1OCC(F)(F)F (stereo not drawn) [Flecainide] | 0.16 | 1.68 | 3.01 | 2.33 | Basic | – | – | – | -0.05 | – | 5.25
CN1C2CCCC1CC(NC(=O)c1nn(C)c3ccccc13)C2 (stereo not drawn) [Granisetron] | 0.52 | 0.79 | 2.5 | 2.53 | Basic | – | – | – | 0.34 | – | –
OC(c1cc(C(F)(F)F)nc2c(C(F)(F)F)cccc12)C1CCCCN1 (stereo not drawn) [Mefloquine] | 1.11 | 2.18 | 4.22 | – | Basic | – | – | – | 1.38 | 5.45 | –
CCN(CC)CCNC(=O)c1cc(Cl)c(N)cc1OC [Metoclopramide] | – | – | – | – | Basic | – | 0.15 | 0.23 | – | – | 5.27
COc1c(N2C[C@@H]3CCCN[C@@H]3C2)c(F)cc2c(=O)c(C(=O)O)cn(C3CC3)c12 [Moxifloxacin] | – | – | – | – | Zwitterionic | – | 0.54 | – | – | – | 3.83
CC(C)(C)NC(=O)[C@@H]1C[C@@H]2CCCC[C@@H]2CN1C[C@@H](O)[C@H](Cc1ccccc1)NC(=O)[C@H](CC(N)=O)NC(=O)c1ccc2ccccc2n1 [Saquinavir] | 1.59 | 3.31 | 3.39 | 2.36 | Weak Base | 42.17 | – | – | – | – | 5.82
CC(C)NCC(O)c1ccc(NS(C)(=O)=O)cc1 (stereo not drawn) [Sotalol] | -1.41 | -0.39 | -0.35 | 1.43 | Basic | – | – | – | – | – | 3.57
CC(=O)S[C@@H]1CC2=CC(=O)CC[C@]2(C)[C@H]2CC[C@@]3(C)[C@@H](CC[C@@]34CCC(=O)O4)[C@H]12 [Spironolactone] | 0.50 | 2.76 | 2.97 | 2.12 | Neutral | 36.93 | – | – | 0.78 | – | –

More lines, main results first:

log k AGP ([2]; pH 7.4, Chiralpak AGP) | chromatographic logD [3] | chromatographic logP [3] | log k IAM [4] | Charge [5] | CHI IAM [4] | log k HSA ([1]; human, pH 7.4) | log k AGP ([2]; pH 7.4) | Compound | log k HSA ([1]; pH 7.4, Chiralpak HSA) | hERG pIC50 (hERG channel) | hERG pIC50 (hERG channel; [6])
1.14 | 4.4 | 6.62 | 3.08 | Basic | – | – | – | CC(C)COCC(CN(Cc1ccccc1)c1ccccc1)N1CCCC1 (stereo not drawn) [Bepridil] | 1.27 | – | 6.42
0.99 | 2.6 | 3.05 | 2.83 | Weak Base | 52.42 | – | – | CN1CCN(C2=Nc3cc(Cl)ccc3Nc3ccccc32)CC1 [Clozapine] | 1.04 | – | –
– | 1.37 | 2.13 | 2.42 | Weak Base | 43.47 | – | – | O=c1[nH]c2ccccc2n1CCCN1CCC(n2c(=O)[nH]c3cc(Cl)ccc32)CC1 [Domperidone] | 1.02 | – | –
1.69 | 2.26 | 2.68 | – | Weak Base | – | – | – | O=C(CCCN1CC=C(n2c(=O)[nH]c3ccccc32)CC1)c1ccc(F)cc1 [Droperidol] | 0.98 | – | –
1.10 | 1.39 | 2 | 1.62 | Zwitterionic | 26.14 | – | – | CCCCC1=NC2(CCCC2)C(=O)N1Cc1ccc(-c2ccccc2-c2nnn[nH]2)cc1 [Irbesartan] | 1.30 | – | 4.71
1.13 | 2.92 | 3.5 | 2.61 | Weak Base | – | – | – | OCCN1CCN(CCCN2c3ccccc3Sc3ccc(Cl)cc32)CC1 [Perphenazine] | – | – | 5.88
1.03 | 1.72 | 4.7 | 2.79 | Weak Base | – | – | – | CNCCCC1c2ccccc2C=Cc2ccccc21 [Protriptyline] | – | – | 5.30
0.46 | 2.51 | 2.59 | 1.93 | Weak Base | – | – | – | O=c1n(CCCN2CCN(c3cccc(Cl)c3)CC2)nc2ccccn12 [Trazodone] | – | – | 5.30
1.19 | 3.8 | 5.14 | 3.55 | Basic | – | – | – | CN1CCN(CCCN2c3ccccc3Sc3ccc(C(F)(F)F)cc32)CC1 [Trifluoperazine] | – | – | 5.72
